Tests used:
[1] = biological target: T1, 5-hydroxytryptamine receptor 1A (Homo sapiens) (UniProt P08908); assay: Antagonistic efficacy as adenylyl cyclase assay in CHO cells expressing human 5-HT1A receptor (experiment 1); type: functional, cell-based
T1 sequence (whole entry): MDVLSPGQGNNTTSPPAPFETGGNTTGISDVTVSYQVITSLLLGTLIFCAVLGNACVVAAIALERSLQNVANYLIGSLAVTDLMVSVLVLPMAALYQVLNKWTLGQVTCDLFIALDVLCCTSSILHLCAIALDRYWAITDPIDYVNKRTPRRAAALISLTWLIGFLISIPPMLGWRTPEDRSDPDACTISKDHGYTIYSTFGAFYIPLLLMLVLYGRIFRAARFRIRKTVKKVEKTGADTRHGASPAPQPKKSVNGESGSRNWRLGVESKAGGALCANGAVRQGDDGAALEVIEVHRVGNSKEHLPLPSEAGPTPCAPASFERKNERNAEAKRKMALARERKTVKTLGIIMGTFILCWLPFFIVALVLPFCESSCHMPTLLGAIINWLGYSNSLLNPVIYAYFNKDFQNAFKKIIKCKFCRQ

[2] = biological target: T2, 5-hydroxytryptamine receptor 1A (Homo sapiens, UniProt P08908); assay: Compound was tested for its potency against human 5-hydroxytryptamine 1A receptor expressed in CHO cells (experiment 2); type: functional, cell-based
T2 sequence (P08908 whole entry): T1 sequence (whole entry)

[3] = biological target: T1, 5-hydroxytryptamine receptor 1A (Homo sapiens); assay: Agonistic efficacy in adenylyl cyclase assay in CHO cells expressing human 5-HT1A receptor (experiment 2); type: functional, cell-based
[4] = biological target: T1, 5-hydroxytryptamine receptor 1A (Homo sapiens); assay: Agonistic efficacy as adenylyl cyclase assay in CHO cells expressing human 5-HT1A receptor (experiment 1); type: functional, cell-based
[5] = biological target: T1, 5-hydroxytryptamine receptor 1A (Homo sapiens); assay: Antagonistic efficacy as adenylyl cyclase assay in CHO cells expressing human 5-HT1A receptor (experiment 2); type: functional, cell-based
[6] = biological target: T2, 5-hydroxytryptamine receptor 1A; assay: Potency against human 5-hydroxytryptamine 1A receptor expressed in CHO cells (experiment 1); type: functional, cell-based
[7] = biological target: T3, 5-hydroxytryptamine receptor 1A (Rattus norvegicus, UniProt P19327)
T3 sequence (P19327 whole entry): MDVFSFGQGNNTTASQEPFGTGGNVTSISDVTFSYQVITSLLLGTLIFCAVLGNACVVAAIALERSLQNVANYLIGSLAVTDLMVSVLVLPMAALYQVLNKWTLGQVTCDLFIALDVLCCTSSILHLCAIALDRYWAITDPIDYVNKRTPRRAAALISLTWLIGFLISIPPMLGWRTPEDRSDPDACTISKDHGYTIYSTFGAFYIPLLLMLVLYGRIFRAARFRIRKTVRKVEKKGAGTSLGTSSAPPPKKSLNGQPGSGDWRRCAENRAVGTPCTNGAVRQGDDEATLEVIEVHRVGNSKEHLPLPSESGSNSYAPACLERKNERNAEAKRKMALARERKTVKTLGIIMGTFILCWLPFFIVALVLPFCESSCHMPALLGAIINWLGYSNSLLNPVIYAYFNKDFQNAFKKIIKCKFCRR
Description: Inhibition of [3H]8-OH-DPAT binding to 5-hydroxytryptamine 1A receptor of rat frontal cortex membranes

[8] = biological target: T3, 5-hydroxytryptamine receptor 1A; assay: (§1) Compound was tested for its potency against 5-hydroxytryptamine 1A receptor in rat frontal cortex membranes (experiment 2); type: functional, cell membranes, Membrane; conditions: read-out: pA2 (converted)
[9] = biological target: T1, 5-hydroxytryptamine receptor 1A (Homo sapiens); assay: Antagonistic efficacy was evaluated by adenylyl cyclase assay in CHO cells stably expressing the human 5-HT1A receptor (experiment 2); type: functional, cell-based
[10] = biological target: T1, 5-hydroxytryptamine receptor 1A (Homo sapiens); assay: Agonistic efficacy was evaluated by adenylyl cyclase assay in CHO cells stably expressing the human 5-HT1A receptor (experiment 2); type: functional, cell-based
[11] = biological target: T1, 5-hydroxytryptamine receptor 1A (Homo sapiens); assay: Antagonistic efficacy was evaluated by adenylyl cyclase assay in CHO cells stably expressing the human 5-HT1A receptor (experiment 1); type: functional, cell-based
[12] = biological target: T2, 5-hydroxytryptamine receptor 1A
[13] = biological target: T1, 5-hydroxytryptamine receptor 1A (Homo sapiens); assay: Antagonistic efficacy was evaluated by adenylyl cyclase assay in CHO cells stably expressing the human 5-HT1A receptor; type: functional, cell-based
[14] = biological target: T2, 5-hydroxytryptamine receptor 1A; assay: Compound was tested for its potency against 5-hydroxytryptamine 1A receptor expressed in CHO cells (experiment 2); type: functional, cell-based
[15] = biological target: T3, 5-hydroxytryptamine receptor 1A; assay: Compound was tested for its potency against 5-hydroxytryptamine 1A receptor in rat frontal cortex membranes (experiment 1); type: cell membranes, Membrane; conditions: read-out: pA2 (converted)
[16] = biological target: T3, 5-hydroxytryptamine receptor 1A; assay: as §1; type: cell membranes, Membrane; conditions: read-out: pA2 (converted)

Efficacy [1] [%] | EC50 [2] [nM] | Efficacy [3] [%] | Efficacy [4] [%] | Efficacy [5] [%] | EC50 [6] [nM] | Ki [7] [nM] | Kb [8] [nM] | Efficacy [9] [%] | Efficacy [10] [%] | Efficacy [11] [%] | EC50 [14] [nM] | Kb [15] [nM] | Kb [16] [nM] | Compound | EC50 [12] [nM] | Efficacy [13] [%]
17 | 31.6 | 85 | 81 | 0 | 12.6 | 1.05 |  |  |  |  |  |  |  | O=C(NCCCCN1CCN(c2cccc3c2OCCO3)CC1)c1ccc(F)cc1 |  | 
100 |  | 0 | 0 | 100 |  | 0.708 | 0.288 |  |  |  |  |  |  | O=C1c2ccccc2S(=O)(=O)N1CCCCN1CCN(c2cc(Cl)cc3c2OCCO3)CC1 [DU 125530] |  | 
 | 2.82 |  | 71 |  | 2.88 |  |  | 18 | 67 | 33 |  |  |  | O=C(CCCN1CCN(c2cccc3c2OCCO3)CC1)c1ccccc1 |  | 
0 |  | 30 | 0 | 2 |  | 31.6 |  |  |  |  |  |  |  | O=C1c2ccccc2C(=O)N1CCN1CCN(c2cccc3c2OCCO3)CC1 |  | 
68 |  | 23 | 11 | 65 |  | 0.288 | 0.363 |  |  |  |  |  |  | O=C1c2ccccc2S(=O)(=O)N1CCCCN1CCN(c2cccc3c2OCCO3)CC1 |  | 
0 | 0.851 | 97 | 97 | 0 | 0.955 | 0.295 |  |  |  |  |  |  |  | O=C(NCCN1CCN(c2cccc3c2OCCO3)CC1)c1ccc(F)cc1 |  | 
 |  |  |  |  |  |  |  |  |  |  |  |  |  | O=C1c2ccccc2S(=O)(=O)N1CCCCN1CCN(c2ncccn2)CC1 [IPSAPIRONE] | 67.6 | 0
0 |  | 86 | 97 | 0 | 251 | 1.23 |  |  |  |  | 631 |  |  | O=C1c2ccccc2S(=O)(=O)N1CCN1CCN(c2cccc3c2OCCO3)CC1 |  | 
55 | 5.75 | 49 | 44 | 62 | 1.35 | 0.229 |  |  |  |  |  | 0.661 | 0.676 | O=C1c2ccccc2C(=O)N1CCCCN1CCN(c2cccc3c2OCCO3)CC1 |  | 
 |  |  |  |  |  |  |  |  |  |  |  |  |  | O=C(NCCN1CCN(c2cccc3c2OCC(CO)O3)CC1)c1ccc(F)cc1 (single isomer, unassigned) [FLESINOXAN] | 6.61 | 0
22 | 7.41 | 48 | 50 | 42 | 5.25 | 1.35 |  |  |  |  |  |  |  | O=C(CCCN1CCN(c2cccc3c2OCCO3)CC1)c1ccc(F)cc1 |  | 
74 | 6.03 | 50 | 45 | 70 | 6.76 |  |  |  |  |  |  |  | 25.1 | c1ccc(CCCCN2CCN(c3cccc4c3OCCO4)CC2)cc1 |  | 

— ChEMBL document CHEMBL1130957, “Functional characteristics of a series of N4-substituted 1-(2,3-dihydro-1,4-benzodioxin-5-yl)piperazines as 5-HT1A receptor ligands. Structure-activity relationships” (Bioorg Med Chem Lett, 1998)
